Laboratory results published in patent US12581252B2, “Substituted pyrrolo[3,4-b]pyridines as PI3K-α inhibitors” (Relay Therapeutics, Inc., priority 2020, dated 2026).

target: H1047R PIK3CA enzyme (Homo sapiens, UniProt P42336, H1047R); assay: ADP-Glo Biochemical PIK3CA Kinase Assay
Sequence (P42336 whole entry H1047R): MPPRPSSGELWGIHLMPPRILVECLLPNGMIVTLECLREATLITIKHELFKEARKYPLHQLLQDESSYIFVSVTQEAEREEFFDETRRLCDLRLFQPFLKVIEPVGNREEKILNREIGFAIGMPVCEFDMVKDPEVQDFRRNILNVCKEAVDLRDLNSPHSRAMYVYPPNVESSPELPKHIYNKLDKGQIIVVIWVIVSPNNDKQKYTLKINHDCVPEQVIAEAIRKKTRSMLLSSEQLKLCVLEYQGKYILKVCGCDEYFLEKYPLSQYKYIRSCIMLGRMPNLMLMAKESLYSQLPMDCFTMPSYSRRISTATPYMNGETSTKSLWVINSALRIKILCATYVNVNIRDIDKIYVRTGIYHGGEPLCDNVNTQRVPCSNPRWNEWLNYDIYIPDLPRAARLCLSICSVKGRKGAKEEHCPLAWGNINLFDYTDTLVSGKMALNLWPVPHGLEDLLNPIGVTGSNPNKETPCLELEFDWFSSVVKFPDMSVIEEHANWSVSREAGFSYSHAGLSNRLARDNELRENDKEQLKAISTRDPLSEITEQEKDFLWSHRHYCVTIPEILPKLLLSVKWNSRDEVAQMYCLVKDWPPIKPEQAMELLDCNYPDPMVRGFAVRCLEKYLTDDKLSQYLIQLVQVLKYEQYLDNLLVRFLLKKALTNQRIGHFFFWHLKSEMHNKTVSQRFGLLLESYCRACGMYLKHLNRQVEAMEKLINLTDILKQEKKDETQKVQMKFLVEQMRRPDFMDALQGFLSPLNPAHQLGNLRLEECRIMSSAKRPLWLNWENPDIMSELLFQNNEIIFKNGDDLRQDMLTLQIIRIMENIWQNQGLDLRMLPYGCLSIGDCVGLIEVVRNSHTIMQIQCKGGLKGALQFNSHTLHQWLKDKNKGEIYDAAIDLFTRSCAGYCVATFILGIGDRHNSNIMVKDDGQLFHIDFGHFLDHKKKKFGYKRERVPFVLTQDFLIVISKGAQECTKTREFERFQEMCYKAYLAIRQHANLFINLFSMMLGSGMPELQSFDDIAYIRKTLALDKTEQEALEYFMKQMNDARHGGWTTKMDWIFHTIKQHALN
Sequence (P27986 whole entry partner): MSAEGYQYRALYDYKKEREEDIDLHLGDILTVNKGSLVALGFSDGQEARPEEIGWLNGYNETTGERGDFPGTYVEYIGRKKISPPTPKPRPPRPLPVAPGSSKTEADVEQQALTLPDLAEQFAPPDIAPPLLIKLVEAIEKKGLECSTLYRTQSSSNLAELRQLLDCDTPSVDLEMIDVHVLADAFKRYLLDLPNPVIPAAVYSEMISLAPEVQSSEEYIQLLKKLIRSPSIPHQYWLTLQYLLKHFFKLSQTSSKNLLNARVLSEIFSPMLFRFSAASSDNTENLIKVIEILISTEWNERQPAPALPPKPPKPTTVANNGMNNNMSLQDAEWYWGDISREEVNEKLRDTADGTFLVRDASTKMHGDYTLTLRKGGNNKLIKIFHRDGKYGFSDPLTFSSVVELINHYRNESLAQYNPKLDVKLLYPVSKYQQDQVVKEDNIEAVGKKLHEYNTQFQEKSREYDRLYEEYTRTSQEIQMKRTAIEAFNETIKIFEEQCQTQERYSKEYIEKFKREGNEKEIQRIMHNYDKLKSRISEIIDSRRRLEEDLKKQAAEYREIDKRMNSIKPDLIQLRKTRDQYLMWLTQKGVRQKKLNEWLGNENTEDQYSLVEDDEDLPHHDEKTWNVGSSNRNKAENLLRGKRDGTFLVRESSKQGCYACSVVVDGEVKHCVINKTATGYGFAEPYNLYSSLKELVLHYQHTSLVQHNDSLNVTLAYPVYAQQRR

Compound | IC50 [nM]
Cc1ccccc1C1NC(=O)c2c(C(=O)NCC(F)F)ccc(NC(=O)c3nsc4ccccc34)c21 (stereo not shown) [Compound I-276] | ≤ 100
Cc1cc2ncnn2cc1-c1cc(NC(=O)c2cc(F)cc(C(F)(F)F)c2)c2c(c1)C(=O)N[C@H]2c1cc(F)ccc1Cl [Compound I-1874] | ≤ 100
CC(C)(O)Cc1cc(NC(=O)c2cc(F)cc(C(F)(F)F)c2)c2c(c1)C(=O)N[C@H]2c1cc(F)ccc1Cl [Compound I-621] | ≤ 100
O=C(Nc1cc(-c2ccc3nc(C(F)F)nn3c2)cc2c1C(c1cc(F)ccc1Cl)NC2=O)c1cc(F)cc(C(F)(F)F)c1 (stereo not shown) [Compound I-1938] | ≤ 100
Cc1ccccc1C1NC(=O)c2cccc(NC(=O)c3c[nH]c(=O)c(Br)c3C)c21 (stereo not shown) [Compound I-504] | 10000 to 100000
CC(C)(O)CNc1cc(NC(=O)c2cc(F)cc(C(F)(F)F)c2)c2c(c1)C(=O)N[C@H]2c1cc(F)ccc1Cl [Compound I-899] | 10000 to 100000
CC(O)c1cc(NC(=O)c2cc(F)cc(C(F)(F)F)c2)c2c(c1)C(=O)NC2c1cc(F)ccc1Cl (racemic) [Compound I-664] | ≤ 100
CC(=O)c1cc(NC(=O)c2cc(F)cc(C(F)(F)F)c2)c2c(c1)C(=O)NC2c1cc(F)ccc1Cl (stereo not shown) [Compound I-127, N-(6-Acetyl-3-(2-chloro-5-fluorophenyl)-1-oxoisoindolin-4-yl)-3-fluoro-5-(trifluoromethyl)benzamide] | ≤ 100
O=C(Nc1cccc2c1C(N1CCC(F)(F)CC1)NC2=O)c1cc(F)cc(C(F)(F)F)c1 (stereo not shown) [Compound I-2077] | 1000 to 10000
O=C(Nc1cc(-c2ccc3ncnn3c2)nc2c1C(C1CCCCO1)NC2=O)c1cc(F)cc(C(F)(F)F)c1 (stereo not shown) [Compound I-1706] | 10000 to 100000
CC(=O)N[C@H]1CCC[C@H](C(=O)Nc2cc(-c3ccc4ncnn4c3)cc3c2C(c2cc(F)ccc2Cl)NC3=O)C1 (mixture of isomers) [Compound I-1843] | 10000 to 100000
O=C(Nc1cc(-c2ccc3ncnn3n2)cc2c1C(c1cc(F)ccc1Cl)NC2=O)c1cc(F)cc(C(F)(F)F)c1 (stereo not shown) [Compound I-1458] | ≤ 100
CC(c1cc(NC(=O)c2cc(F)cc(C(F)(F)F)c2)c2c(c1)C(=O)NC2c1cc(F)ccc1Cl)[S+](C)[O-] (racemic) [Compound I-1472] | 100 to 500
O=C1NC(c2cc(F)ccc2Cl)c2c(Nc3nccc4ccccc34)cc(Br)cc21 (stereo not shown) [Compound I-762] | 1000 to 10000
Cc1ccccc1C1NC(=O)c2cccc(NC(=O)c3cc(F)cc(C(F)F)c3)c21 (stereo not shown) [Compound I-112] | 1000 to 10000
Cc1ccccc1C1NC(=O)c2cccc(NC(=O)N3CCc4ccc(F)cc43)c21 (stereo not shown) [Compound I-96] | 100 to 500
O=C1C[C@@H](c2cc(NC(=O)c3cc(F)cc(C(F)(F)F)c3)c3c(c2)C(=O)N[C@H]3c2cc(F)ccc2Cl)CN1 (single isomer, unassigned) [Compound I-1710] | ≤ 100
Cn1cc(-c2cc(NC(=O)c3cc(F)cc(C(F)(F)F)c3)c3c(n2)C(=O)N[C@H]3c2cc(F)ccc2Cl)cn1 [Compound I-187] | ≤ 100
C[C@H](CCC(F)(F)F)C(=O)Nc1cccc2c1[C@H](c1cc(F)ccc1Cl)NC2=O [Compound I-2139] | 10000 to 100000
O=C(Nc1cc(Br)cc2c1C(c1cccc(F)c1F)NC2=O)c1cc(F)cc(C(F)(F)F)c1 (stereo not shown) [Compound I-684] | 1000 to 10000
O=C(Nc1cc(-c2ccc(=O)n(C(F)F)c2)cc2c1[C@@H](c1cc(F)ccc1Cl)NC2=O)c1cc(F)cc(C(F)(F)F)c1 [Compound I-1860] | 1000 to 10000
O=C(Nc1cccc2c1[C@@H](C13C[C@H]4C[C@@H](C1)C[C@@H](C3)C4)NC2=O)c1cc(F)cc(C(F)(F)F)c1 (racemic) [Compound I-2074] | 10000 to 100000

Compound | IC50 [nM]
Cc1ccccc1C1NC(=O)c2c(-c3cnn(C)c3)ncc(NC(=O)c3cc(F)cc(C(F)(F)F)c3)c21 (stereo not shown) [Compound I-254] | 100 to 500
Cc1ccccc1C1NC(=O)c2cccc(NC(=O)c3n[nH]cc3-c3ccccc3)c21 (stereo not shown) [Compound I-412] | 10000 to 100000
C[C@H]([C@H]1C[C@H](O)CN1C(=O)Nc1cccc2c1[C@H](c1cc(F)ccc1Cl)NC2=O)C(F)(F)F (single isomer, unassigned) [Compound I-2379] | 10000 to 100000
O=C1NC(c2cc(F)ccc2Cl)c2c(Nc3cc4ccccn4n3)cc(-c3ccc4ncnn4c3)cc21 (stereo not shown) [Compound I-1679] | 10000 to 100000
O=C(Nc1cc(Oc2ncccn2)cc2c1C(c1cc(F)ccc1Cl)NC2=O)c1cc(F)cc(C(F)(F)F)c1 (stereo not shown) [Compound I-1202] | 100 to 500
NCc1ncc(NC(=O)c2cc(F)cc(C(F)(F)F)c2)c2c1C(=O)NC2c1cc(F)ccc1Cl (stereo not shown) [Compound I-480] | 500 to 1000
O=C1NC(c2cc(F)ccc2Cl)c2c(NC3CCCS(=O)(=O)C3)cc(-c3ccc4ncnn4c3)cc21 (stereo not shown) [Compound I-2078] | 10000 to 100000
N#Cc1cccnc1-c1cc(NC(=O)c2cc(F)cc(C(F)(F)F)c2)c2c(c1)C(=O)NC2c1cc(F)ccc1Cl (stereo not shown) [Compound I-1408] | ≤ 100
Cc1ccccc1C1NC(=O)c2nccc(NC(=O)N3CCc4c(F)cc(F)cc43)c21 (stereo not shown) [Compound I-148] | 500 to 1000
O=C(Cc1ccccc1C(F)(F)F)Nc1cc(Br)cc2c1C(c1cc(F)ccc1Cl)NC2=O (stereo not shown) [Compound I-568] | 1000 to 10000
CN(C)S(=O)(=O)c1cc(-c2ccc3ncnn3c2)cc2c1[C@@H](c1cc(F)ccc1Cl)NC2=O [Compound I-2098] | 10000 to 100000
N#Cc1cccc(S(=O)(=O)Cc2cc(NC(=O)c3cc(F)cc(C(F)(F)F)c3)c3c(c2)C(=O)N[C@H]3c2cc(F)ccc2Cl)c1 [Compound I-1594] | ≤ 100
O=C(Nc1cc(CC(O)CO)cc2c1C(c1cc(F)ccc1Cl)NC2=O)c1cc(F)cc(C(F)(F)F)c1 (stereo not shown) [Compound I-1376] | ≤ 100
Cn1cc(Br)c(C(=O)Nc2cccc3c2C(c2cc(F)ccc2Cl)NC3=O)n1 (stereo not shown) [Compound I-582] | 10000 to 100000
O=C1N[C@H](c2cc(F)ccc2Cl)c2c(NC(=O)N3C[C@@H](O)c4ccccc43)cc(-c3ccc4ncnn4c3)cc21 (single isomer, unassigned) [Compound I-1579] | 500 to 1000
O=C1N[C@@H](c2cc(F)ccc2Cl)c2c(NC(=O)N3C[C@@H](O)c4cc(F)ccc43)cc(-n3cccn3)cc21 (single isomer, unassigned) [Compound I-2366] | 1000 to 10000
O=C1N[C@@H](c2cc(F)ccc2Cl)c2c(NC(=O)N3C[C@@](O)(C(F)(F)F)c4cc(F)ccc43)cc(-n3ccnn3)cc21 (single isomer, unassigned) [Compound I-2549] | 100 to 500
CC(C)[C@]1(O)CN(C(=O)Nc2cccc3c2[C@H](c2cc(F)ccc2Cl)NC3=O)c2ccc(F)cc21 (single isomer, unassigned) [Compound I-2453] | 1000 to 10000
Cn1cc(-c2cc(NC(=O)c3cc(F)cc(C(F)(F)F)c3)c3c(c2)C(=O)NC3c2cc(F)ccc2Cl)ccc1=O (stereo not shown) [Compound I-648] | ≤ 100
O=C1NC(c2cc(F)ccc2Cl)c2c(NC(=O)N3CCc4ccccc43)ccnc21 (stereo not shown) [Compound I-257] | 500 to 1000
O=C(CCc1ccccc1)Nc1cc(-c2ccc3ncnn3c2)cc2c1C(c1cc(F)ccc1Cl)NC2=O (stereo not shown) [Compound I-1628] | 1000 to 10000
CC1(C)COC(Nc2cc(NC(=O)c3cc(F)cc(C(F)(F)F)c3)c3c(c2)C(=O)NC3c2cc(F)ccc2Cl)=N1 (stereo not shown) [Compound I-2358] | 100 to 500

Compound | IC50 [nM]
N#Cc1ncc(-c2cc(NC(=O)c3cc(F)cc(C(F)(F)F)c3)c3c(c2)C(=O)NC3c2cc(F)ccc2Cl)cn1 (stereo not shown) [Compound I-886] | ≤ 100
COc1ccc(C(=O)Nc2cc(Br)cc3c2C(c2cc(F)ccc2Cl)NC3=O)cc1 (stereo not shown) [Compound I-465] | 10000 to 100000
Cc1c(F)cccc1[C@H]1NC(=O)c2cc(Br)cc(NC(=O)c3cc(F)cc(C(F)(F)F)c3)c21 [Compound I-749] | 1000 to 10000
O=C(Nc1cc(N2CCCc3ncccc32)cc2c1C(c1cc(F)ccc1Cl)NC2=O)c1cc(F)cc(C(F)(F)F)c1 (stereo not shown) [Compound I-1227] | ≤ 100
NC(=O)COc1ncc(-c2cc(NC(=O)c3cc(F)cc(C(F)(F)F)c3)c3c(c2)C(=O)NC3c2cc(F)ccc2Cl)cn1 (stereo not shown) [Compound I-1416] | ≤ 100
O=C(Nc1cc(NCCO)cc2c1C(c1cc(F)ccc1Cl)NC2=O)c1cc(F)cc(C(F)(F)F)c1 (stereo not shown) [Compound I-707] | ≤ 100
O=C(Nc1cccc2c1C(C1CCCCC13CC3)NC2=O)c1cc(F)cc(C(F)(F)F)c1 (racemic) [Compound I-1912] | 1000 to 10000
O=C(Nc1cc(-c2ccc3ncnn3c2)cc2c1[C@H](c1cc(F)ccc1Cl)NC2=O)c1cc(F)cc2c1NC(=O)C2(F)F [Compound I-1584] | 100 to 500
CC(c1ccccc1O)N(C)C(=O)Nc1cc(Br)cc2c1C(c1cc(F)ccc1Cl)NC2=O (stereo not shown) [Compound I-1459] | 10000 to 100000
CCCCc1ccc(Cl)c(C2NC(=O)c3cccc(NC(=O)c4cc(O)cc(C(F)(F)F)c4)c32)c1 (stereo not shown) [Compound I-2391] | 1000 to 10000
CS(=O)(=O)c1cc(F)cc(C(=O)Nc2cc(Br)cc3c2C(c2cc(F)ccc2Cl)NC3=O)c1 (stereo not shown) [Compound I-912] | 10000 to 100000
O=C(Nc1cc(N[C@H]2C[C@@H](O)C2)cc2c1C(c1cc(F)ccc1Cl)NC2=O)c1cc(F)cc(C(F)(F)F)c1 (mixture of isomers) [Compound I-478] | ≤ 100
O=C1NC(c2cc(F)ccc2Cl)c2c(NC(=O)C3CCCC(O)(C(F)(F)F)C3)cccc21 (stereo not shown) [Compound I-2136] | 10000 to 100000
O=C(Nc1cccc2c1[C@H](C1CCCCC1)NC2=O)c1cc(F)cc(C(F)(F)F)c1 [Compound I-2052] | 1000 to 10000
O=C(Nc1cc(Br)cc2c1C(c1cc(F)ccc1Cl)NC2=O)c1ccccc1OC(F)(F)F (stereo not shown) [Compound I-571] | 1000 to 10000
N#CCn1cc(-c2cc(NC(=O)c3cc(F)cc(C(F)(F)F)c3)c3c(c2)C(=O)NC3c2cc(F)ccc2Cl)cn1 (stereo not shown) [Compound I-1420] | ≤ 100
Nc1nc2ccc(-c3cc(NC(=O)c4cc(F)cc(C(F)(F)F)c4)c4c(c3)C(=O)NC4c3cc(F)ccc3Cl)cn2n1 (stereo not shown) [Compound I-1368] | ≤ 100
NS(=O)(=O)Cc1cc(NC(=O)c2cc(F)cc(C(F)(F)F)c2)c2c(c1)C(=O)NC2c1cc(F)ccc1Cl (stereo not shown) [Compound I-1367] | ≤ 100
N#Cc1ccc2c(c1)N(C(=O)Nc1cccc3c1C(c1cc(F)ccc1Cl)NC3=O)CC2 (stereo not shown) [Compound I-2427] | 1000 to 10000
N#Cc1nccn1Cc1cc(NC(=O)c2cc(F)cc(C(F)(F)F)c2)c2c(c1)C(=O)NC2c1cc(F)ccc1Cl (stereo not shown) [Compound I-1557] | ≤ 100
